Key:
[1] = Solubility in aqueous media (USP definition); type: physicochemical; details: water; USP definition: more than 10,000 parts of solvent for 1 part of solute
Excerpt: The solvent referred to herein is water.

[2] = Thermal stability at melt-extrusion temperatures; type: physicochemical; details: temperatures up to 300° C.
Experimental: One of the most important parameters of melt extrusion is the temperature at which the melt-extruder is operating. […] At temperatures lower than 120° C., itraconazole will not dissolve completely in most water-soluble polymers and the extrudate will not have the required bioavailability. In addition, the process is difficult because of the high viscosity of the mixture. At temperatures of more than 300° C. the water-soluble polymer may decompose to an unacceptable level.

solubility in aqueous media [1]: practically insoluble
thermal stability (decomposition) [2]: thermally very stable
SMILES: CCC(C)n1ncn(-c2ccc(N3CCN(c4ccc(OCC5COC(Cn6cncn6)(c6ccc(Cl)cc6Cl)O5)cc4)CC3)cc2)c1=O (racemic) [itraconazole, (±)-cis-4-[4-[4-[4-[[2-(2,4-dichlorophenyl)-2-(1H-1,2,4-triazol-1-yl-methyl)-1,3-dioxolan-4-yl]methoxy]phenyl]-1-piperazinyl]phenyl]-2,4-dihydro-2-(1-methylpropyl)-3H-1,2,4-triazol-3-one]

— patent US9642806B2, “Antifungal compositions with improved bioavailability” (Janssen Pharmaceutica N.V., priority 1996, dated 2017)
